Test system: MDR1 (P-gp)
Experiment: Bidirectional permeability study on MDCK-MDR1 cell line
Format: in vitro ADME
Details: dog; for efflux ratio at 2 h, 1 μM: MDCK-MDR1, pH 7.4, read-out: Excretion ratio = Papp (B-A)/Papp (A-B); for Papp A→B at 2 h, 1 μM / Papp B→A at 2 h, 1 μM: pH 7.4, MDCK-MDR1, 1 μM
Method: MDCK-MDR1 cells were purchased from Netherlands Cancer Institute, and cells between 10 and 20 generations were used.
1) Before cell inoculation, 50 μL of cell medium was added into each well of an upper chamber of Transwell, and […] of cell medium was added into a lower culture plate. The culture plate was placed in an incubator at 37° C. under 5% CO2 for incubation for 1 hour, and then could be used for inoculating cells.
2) The MDCK-MDR1 cells were resuspended with the medium, so that a final concentration was 1.56×10^6 cells/mL. A cell suspension was added into an upper chamber of a 96-well Transwell culture plate according to 50 μL per well. The incubator was set at 37° C. under 5% CO2, and was ensured to have a relative humidity of 95% for culturing for 4 days to 8 days. The medium was replaced 48 hours after inoculation, the culturing lasted for 4 days to 8 days, and the medium was replaced every other day.
4) Calculation of resistance value: measured resistance value (ohms)×film area (cm^2)=TEER value (ohm cm^2), and if the TEER value was less than 42 ohms cm^2, the well could not be used for a penetration experiment.
1) The MDCK-MDR1 Transwell culture plate was taken from the incubator. The cell monolayer film was moistened and washed twice with a preheated HBSS (25 mM HEPES, pH 7.4) buffer, and incubated at 37° C. for 30 minutes.
2) A stock solution of the control compound and the test compound was diluted in DMSO to obtain a 200 μM solution, and then diluted with HBSS (10 mM HEPES, pH 7.4) to obtain a 1 μM working solution. A final concentration of DMSO in the incubation system was 0.5%.
3) A transfer rate of the compound from a top end to a base end was measured. 125 μL of working solution was added into the upper chamber (top end), then 50 μL of sample solution was immediately transferred from a lower chamber (base end) to a 96-well plate filled with 200 μL of acetonitrile containing an internal standard as a 0-minute administration sample (A-B) for detection, and 235 μL of HBSS (25 mM HEPES, pH 7.4) buffer was added into the lower chamber. The internal standard contained 100 nM alprazolam, 200 nM caffeine and 100 nM tolbutamide. The 50 μL of sample solution transferred above was vortexed at a speed of 1,000 rpm for 10 minutes.
4) A transfer rate of the compound from the base end to the top end was measured. 285 μL of working solution was added into the lower chamber (base end), then 50 μL of sample solution was immediately transferred from the upper chamber (top end) to a 96-well plate filled with 200 μL of acetonitrile containing an internal standard as a 0-minute administration sample (B-A) for detection, and 75 μL of HB SS (25 mM HEPES, pH 7.4) buffer was added into the upper chamber. The internal standard contained 100 nM alprazolam, 200 nM caffeine and 100 nM tolbutamide. The 50 μL of sample solution transferred above was vortexed at a speed of 1,000 rpm for 10 minutes. The experiment from the top end to the base end and the experiment from the base end to the top end should be carried out simultaneously.
5) After adding the buffers into the lower chamber and the upper chamber respectively, the MDCK-MDR1 Transwell culture plate was incubated at 37° C. for 2 hours.
6) After finishing incubating, 50 μL of sample solutions were respectively taken from an administration side (the upper chamber: Ap→Bl flux, the lower chamber: Bl→Ap) and a receiving side (the lower chamber: Ap→Bl flux, the upper chamber Bl→Ap) and added into new 96-well plates, and 4 times volume of […] containing the internal standard was added into the well plates. The internal standard substance contained 100 nM alprazolam, 200 nM caffeine and 100 nM tolbutamide. The solution was vortexed for 10 minutes, and then centrifuged at 3,220 g for 40 minutes. 100 μL of supernatant was sucked and mixed with equal volume of ultrapure water, and then subjected to LC-MS/MS analysis. […]

efflux ratio at 2 h, 1 μM | Papp A→B at 2 h, 1 μM [×10⁻⁶ cm/s] | Papp B→A at 2 h, 1 μM [×10⁻⁶ cm/s] | SMILES
4.67 | 11.1 | 51.9 | C[C@H]1Nc2nc3c(cnn3cc2F)C(=O)N[C@H]2C[C@H](C2)Oc2ncc(F)cc21 [Example 3, (3^1S,3^3S,6^3E,6^4E,8R)-1^5,6^6-difluoro-8-methyl-2-oxo-4,7-diaza-6(3,5)-pyrazolo[1,5-a]pyrimidine-1(2,3)-pyridine-3(1,3)-cyclobutylcyclooctane-5-one]
19.4 | 3.31 | 64.4 | C[C@H]1Nc2ccn3ncc(c3n2)C(=O)N[C@H]2C[C@H](C2)Oc2ncc(F)cc21 [Positive control 2, reference compound]
